From patent publication US8916498B2, “Safening 6-(trisubstituted phenyl)-4-amino-2-pyridinecarboxylate herbicide injury on direct seeded and transplanted paddy rice” (priority 2008, dated 2014)
Read-outs that look alike come from different tables or passages of the source.

Columns and labels:
ECHCO = experiment: Postemergence herbicidal safening in direct seeded rice, visual injury on weed; format: in vivo; details: alone, after 3 weeks
weed test plant species = experiment: Herbicidal safening in transplanted paddy rice, visual injury on weeds; format: in vivo; details: after 3 weeks; for Visual Injury (%) CYPDI Obs: Cyperus difformis; for Visual Injury (%) MOOVA Obs: Monochoria vaginalis
Protocol: (§1) Evaluation of Herbicidal Safening in Transplanted Paddy Rice
(§2) The prepared mud was dispensed in 250 mL aliquots into 480 mL non-perforated plastic pots with a surface area of 91.6 cm^2 leaving a headspace of 3 cm in each pot. Rice seeds were planted in Sun Gro MetroMix 306 planting mixture, which typically has a pH of 6.0 to 6.8 and an organic matter content of about 30 percent, in plastic plug trays. Seedlings at the second or third leaf stage of growth were transplanted into 650 mL of mud contained in 960 mL non-perforated plastic pots with a surface area of 91.6 cm^2 four days prior to herbicide application. The paddy was created by filling the 3 cm headspace of the pots with water. […] Nutrients were added as Osmocote (17:6:10, Nitrogen:Phosphorus:Potassium (N:P:K)+minor nutrients) at 2 grams (g) per cup.
(§3) For technical grade compounds and safeners, a weighed amount, determined by the highest rate to be tested, was placed in an individual 120 mL glass vial and was dissolved in 20 mL of acetone to obtain concentrated stock solutions. […] The concentrated stock solutions obtained were diluted with 20 mL of acetone. Applications were made by injecting an appropriate amount of the stock solution into the aqueous layer of the paddy. […] All treated plant material received the same concentration of acetone and crop oil concentrate.

CYPDI = experiment: Postemergence herbicidal safening in direct seeded rice, visual injury on weed; format: in vivo; details: alone, after 3 weeks
ORYSA (rice) = experiment: Postemergence herbicidal safening in direct seeded rice, visual injury; details: for ‘M202’ ORYSA Visual Injury (%) Obs: Safener Alone, 560 g ai/ha; for ‘M202’ ORYSA Visual Injury (%) Obs / Visual Injury (%) ‘Lemont’ ORYSA Obs: after 3 weeks
From the text: A=observed efficacy of active ingredient A at the same concentration as used in the mixture.
B=observed efficacy of active ingredient B at the same concentration as used in the mixture.

SEBEX = experiment: Postemergence herbicidal safening in direct seeded rice, visual injury on weed; format: in vivo; details: alone, after 3 weeks
transplanted paddy rice = experiment: Herbicidal safening in transplanted paddy rice, visual injury; format: in vivo, Oryza sativa; details: safener 1120 g ae/ha alone; after 3 weeks
Protocol: as §1, §2, §3

[1] = alone, 140 g ai/ha, after 3 weeks (Table 14)
[2] = alone, 280 g ai/ha, after 3 weeks (Table 14)

CCOC(=O)C(Cl)Cc1cc(-n2nc(C)n(C(F)F)c2=O)c(F)cc1Cl (stereo not drawn) [Carfentrazone-ethyl]
20%: ORYSA Visual Injury (%) ‘M202’ Obs (direct seeded rice; partner 56 g/ha alone) | ORYSA Visual Injury (%) ‘M202’ Obs (direct seeded rice; partner 112 g/ha alone)
35%: ORYSA Visual Injury (%) ‘Wells’ Obs (direct seeded rice; partner 112 g/ha alone)
25%: ORYSA Visual Injury (%) ‘Wells’ Obs (direct seeded rice; partner 56 g/ha alone)

CCCCCC(C)OC(=O)COc1ccc(Cl)c2cccnc12 (stereo not drawn) [Cloquintocet-mexyl]
0%: Visual Injury (%) ECHCO Obs (ECHCO; 35 g ai/ha) | Visual Injury (%) ECHCO Obs (ECHCO; 70 g ai/ha) | Visual Injury (%) ECHCO Obs (ECHCO; 140 g ai/ha) | Visual Injury (%) ECHCO Obs (ECHCO; 280 g ae/ha) | Visual Injury (%) ECHCO Obs (ECHCO; 280 g ai/ha) | Visual Injury (%) CYPDI Obs (weed test plant species; safener 70 g ai/ha alone) | Visual Injury (%) CYPDI Obs (weed test plant species; safener 140 g ai/ha alone) | Visual Injury (%) CYPDI Obs (weed test plant species; safener 280 g ai/ha alone) | Visual Injury (%) MOOVA Obs (weed test plant species; safener 70 g ai/ha alone) | Visual Injury (%) MOOVA Obs (weed test plant species; safener 140 g ai/ha alone) | Visual Injury (%) MOOVA Obs (weed test plant species; safener 280 g ai/ha alone) | Visual Injury (%) CYPDI Obs (CYPDI; 35 g ai/ha) | Visual Injury (%) CYPDI Obs (CYPDI; 70 g ai/ha) | Visual Injury (%) CYPDI Obs (CYPDI; 140 g ai/ha) | Visual Injury (%) CYPDI Obs (CYPDI; 280 g ae/ha) | Visual Injury (%) CYPDI Obs (CYPDI; 280 g ai/ha) | Visual Injury (%) ‘Lemont’ ORYSA Obs (ORYSA (rice); alone, 35 g ai/ha) | Visual Injury (%) ‘Lemont’ ORYSA Obs (ORYSA (rice); alone, 70 g ai/ha) | Visual Injury (%) ‘Lemont’ ORYSA Obs (ORYSA (rice); alone, 140 g ai/ha) | ORYSA Visual Injury (%) ‘Cheniere’ Obs (ORYSA (rice); [1]) | ORYSA Visual Injury (%) ‘Clearfield’ Obs (ORYSA (rice); [1]) | ORYSA Visual Injury (%) ‘Cocodrie’ Obs (ORYSA (rice); [1]) | ORYSA Visual Injury (%) ‘Lemont’ Obs (ORYSA (rice); [1]) | ORYSA Visual Injury (%) ‘M202’ Obs (ORYSA (rice); [1]) | ORYSA Visual Injury (%) ‘Wells’ Obs (ORYSA (rice); [1]) | Visual Injury (%) ‘Lemont’ ORYSA Obs (ORYSA (rice); alone, 280 g ae/ha) | Visual Injury (%) ‘Lemont’ ORYSA Obs (ORYSA (rice); alone, 280 g ai/ha) | ORYSA Visual Injury (%) ‘Cheniere’ Obs (ORYSA (rice); [2]) | ORYSA Visual Injury (%) ‘Clearfield’ Obs (ORYSA (rice); [2]) | ORYSA Visual Injury (%) ‘Cocodrie’ Obs (ORYSA (rice); [2]) | ORYSA Visual Injury (%) ‘Lemont’ Obs (ORYSA (rice); [2]) | ORYSA Visual Injury (%) ‘M202’ Obs (ORYSA (rice); [2]) | ORYSA Visual Injury (%) ‘Wells’ Obs (ORYSA (rice); [2]) | Visual Injury (%) SEBEX Obs (SEBEX; 35 g ai/ha) | Visual Injury (%) SEBEX Obs (SEBEX; 70 g ai/ha) | Visual Injury (%) SEBEX Obs (SEBEX; 140 g ai/ha) | Visual Injury (%) SEBEX Obs (SEBEX; 280 g ae/ha) | Visual Injury (%) SEBEX Obs (SEBEX; 280 g ai/ha)
3.3%: ‘M202’ ORYSA Visual Injury (%) Obs (ORYSA (rice))

COc1c(Cl)ccc(-c2cc(N)c(Cl)c(C(=O)[O-])n2)c1F.[Na+] [Compound 1 Na + salt]
95%: Visual Injury (%) ECHCO Obs (ECHCO; 70 g ai/ha) | Visual Injury (%) CYPDI Obs (CYPDI; 70 g ai/ha)
100%: Visual Injury (%) CYPDI Obs (weed test plant species; herbicide 70 g ai/ha alone) | Visual Injury (%) MOOVA Obs (weed test plant species; herbicide 70 g ai/ha alone) | Visual Injury (%) SEBEX Obs (SEBEX; 70 g ai/ha)
50%: Visual Injury (%) ‘Lemont’ ORYSA Obs (ORYSA (rice); alone, 70 g ai/ha)

COC(=O)c1c(Cl)nn(C)c1S(=O)(=O)NC(=O)Nc1nc(OC)cc(OC)n1 [Halosulfuron-methyl]
10%: ORYSA Visual Injury (%) ‘Wells’ Obs (direct seeded rice; partner 26 g/ha alone)
15%: ORYSA Visual Injury (%) ‘M202’ Obs (direct seeded rice; partner 52 g/ha alone)
0%: ORYSA Visual Injury (%) ‘M202’ Obs (direct seeded rice; partner 26 g/ha alone)

COc1cc(OC)nc(Oc2cccc(Oc3nc(OC)cc(OC)n3)c2C(=O)O)n1 [Bispyribac sodium]
15%: ORYSA Visual Injury (%) ‘M202’ Obs (direct seeded rice; partner 28 g/ha alone)
20%: ORYSA Visual Injury (%) ‘Wells’ Obs (direct seeded rice; partner 28 g/ha alone)

CCOC(=O)C1=NN(c2ccc(Cl)cc2Cl)C(C)(C(=O)OCC)C1 (stereo not drawn) [Mefenpyr-diethyl]
0.0%: ‘M202’ ORYSA Visual Injury (%) Obs (ORYSA (rice))
0%: ‘M202’ ORYSA Visual Injury (%) Obs (transplanted paddy rice) | ORYSA Visual Injury (%) ‘Clearfield’ Obs (ORYSA (rice); safener 140 g ai/ha alone) | ORYSA Visual Injury (%) ‘Lemont’ Obs (ORYSA (rice); safener 140 g ai/ha alone)
10%: ORYSA Visual Injury (%) ‘Cocodrie’ Obs (ORYSA (rice); safener 140 g ai/ha alone) | ORYSA Visual Injury (%) ‘M202’ Obs (ORYSA (rice); safener 140 g ai/ha alone)

COc1c(Cl)ccc(-c2cc(N)c(Cl)c(C(=O)[O-])n2)c1Cl.[Na+] [Compound 2 Na + salt]
15%: Visual Injury (%) ‘Lemont’ ORYSA Obs (ORYSA (rice); alone, 70 g ai/ha)
90%: Visual Injury (%) ECHCO Obs (ECHCO; 70 g ai/ha)
100%: Visual Injury (%) CYPDI Obs (weed test plant species; herbicide 70 g ai/ha alone) | Visual Injury (%) MOOVA Obs (weed test plant species; herbicide 70 g ai/ha alone) | Visual Injury (%) CYPDI Obs (CYPDI; 70 g ai/ha) | Visual Injury (%) SEBEX Obs (SEBEX; 70 g ai/ha)
